Reference: US9920053B2, “N-(hetero)aryl-substituted heteroyclic derivatives useful for the treatment of diseases or conditions related to the central nervous system” (CHRONOS THERAPEUTICS LIMITED, priority 2014, dated 2018)

Assays:
[1] = molecular target: human dopamine transporter (DAT) (Homo sapiens (Human), UniProt Q01959); assay: Scintillation Proximity Assay (SPA) for human DAT binding ([3H]WIN-35,428); conditions: recombinant human DAT, CHO
From the text: (§1) Affinity is expressed in terms of inhibition constant (Ki) of the compounds of the invention for DAT, NET and SERT, and it is typically calculated from the IC50 values obtained in competition experiments using Cheng and Prusoff equation (Cheng and Prusoff, Biochem. Pharmacol. 22:3099, 1973). In the context of the present invention pKi values (corresponding to the antilogarithm of Ki) are used instead of Ki; pKi are only estimated to be accurate to about 0.3 log unit.
(§2) Chinese Hamster Ovary (CHO) cells stably expressing either human DAT (hDAT-CHO) or human NET (hNET-CHO) or human SERT (hSERT-CHO) are used for the membrane preparations for radioligand binding assays using Scintillation proximity Assay (SPA) technique. Each cell line is cultured independently in F-12K Nutrient Mixture containing 10% of Fetal Bovine Serum (FBS) supplemented with 450 μg/ml G-418. When cells are at 70-80% of confluence 3 mM Na Butyrate was added to the cell culture medium. After 24 h of incubation, the culture medium was removed and the cells detached with Versene (DAT) or by scraping (NET and SERT). Cell suspension is centrifuged at 41,000 g for 10 minutes at 4° C. The resultant pellets are re-suspended in 15 volumes of Ice-cold buffer (20 mM HEPES, 145 mM NaCl, 5 mM KCl, pH7.3), homogenized using an Ultra Turrax homogeniser and centrifuged as before. The resultant membrane pellets are re-suspended in up to 15 volume of ice-cold buffer, incubated for 20 minutes at 37° C and centrifuged as before at 41,000 g. The final membrane pellets are re-suspended into 5-10 volumes of ice-cold buffer, dispensed into 0.5 ml aliquots and stored at −80° C. until use. Protein concentration for each preparation is determined using Bio-Rad Protein Assay Kit.
(§3) The affinity of the compounds of the invention to the human DAT or NET or SERT transporters is assessed by using the [^3H]WIN-35,428 or [^3H]nisoxetine or [^3H]citalopram binding assays in recombinant human DAT, NET and SERT membranes with the SPA technology. The final assay volume is 50 μL in 384 well plates.
(§4) Briefly, 0.5 μL of test compound in neat DMSO or 0.5 μL of DMSO for total binding (TB) or 0.5 μL of indatraline 1 mM (10 μM final concentration) for non specific binding (NSB) are added to the assay plate. 50 μL of the SPA mixture is added to each well, containing: 30 μg/mL or 10 μg/mL or 25 μg/mL DAT, NET, SERT membranes, respectively; 5 nM [^3H]WIN-35,428 or 5 nM [^3H]nisoxetine or 1 nM [^3H]citalopram, for DAT, NET, SERT assay, respectively; 2.5 mg/mL or 1 mg/mL or 4 mg/mL WGA-PVT SPA beads (PerkinElmer RPNQ0001, for DAT, NET, SERT assay, respectively. All components are added to Assay Buffer (20 mM HEPES pH 7.4, 145 mM NaCl, 5 mM KCl, 0.01% Pluronic F-127). 0.02% BSA was used for DAT binding only. Plates are sealed with Topseal A and centrifuged 1 min, 800 rpm. Plates are loaded into a 1450 Microbeta TriLux (Perkin-Elmer) plate reader and the radioactivity counted after at least 4 hrs or overnight incubation at room temperature. Curve fitting and IC50 estimations are performed using a four parameter model in XLfit (IDBS, Guilford, UK) for Microdoft Excel (Microsoft, Redmond, Wash.).
The potency of the compounds of the invention in blocking the DAT function is measured using an uptake assay in a recombinant CHO cell line expressing human DAT (hDAT-CHO). Potency is measured in terms of pIC50 by testing the compounds of invention for the inhibition of [^3H]-dopamine uptake in DAT-CHO cells using a SPA technology in 384 well format.
Briefly, on the days of the experiment hDAT-CHO cells are detached using Versene and added (75,000 cells/mL) to the SPA Mixture, which contains the following components in Assay Buffer (20 mM HEPES, 145 mM NaCl, 5 mM KCl, 2 mM CaCl2, 1 mM MgCl2 and 1 g/L glucose, pH 7.3): 0.02% w/v of Pluronic F127, 2 mg/mL SPA Imaging beads (RPNQ0260, PerkinElmer), 10 μM pargyline and 80 nM of [^3H]-dopamine. […]

[2] = molecular target: human norepinephrine transporter (NET) (Homo sapiens (Human), UniProt P23975); assay: Scintillation Proximity Assay (SPA) for human NET binding ([3H]nisoxetine); conditions: recombinant human NET, CHO membranes
From the text: as §1, §2, §3, §4

[3] = molecular target: human serotonin transporter (SERT) (Homo sapiens (Human), UniProt P31645); assay: Scintillation Proximity Assay (SPA) for human SERT binding ([3H]citalopram); conditions: recombinant human SERT, CHO membranes
From the text: as §1, §2, §3, §4

[4] = molecular target: human ERG potassium channel (hERG) (Homo sapiens (Human), UniProt Q12809); assay: hERG channel tail current recording using Rapid ICE automated patch-clamp; type: cell-based; conditions: HEK293 cells stably transfected with hERG
Method: The potency of the compounds of the invention in inhibiting human ERG potassium channel (hERG) tail current is assessed in a recombinant HEK293 cell line stably transfected with hERG cDNA using Rapid ICE™ (Rapid Ion Channel Electrophysiology) assay. Rapid ICE™ is an automated patch-clamp assay utilizing the PatchXpress 7000A system (Molecular Devices Corporation) or the QPatch HTX system (Sophion Bioscience A/S).
Briefly cells are cultivated for 24 to 72 hours before recordings in minimum essential medium supplemented with 10% FBS, 1% non-essential amino acids, 1% sodium pyruvate, 2 mM L-glutamine. The day of the experiment cells are detached with TrypLE and prepared to be loaded on the instrument. For PatchXpress cells are finally resuspended in 150 μl of Extracellular Buffer whereas for QPatch cells are resuspended in 7 ml Serum-Free Media containing 25 mM Hepes and Soybean trypsin inhibitor and immediately placed in the cell storage tank of the machine. The composition of the Extracellular Buffer is (mM): NaCl 137; KCl 4; CaCl2 1.8; MgCl2 1.0; D-glucose 10; N 2 hydroxyethylpiperazine-N′-2-ethanesulfonic acid (HEPES) 10; pH 7.4 with 1 M NaOH. The composition of the pipette solution is (mM): KCl 130; MgCl2 1.0; Ethylene glycol-bis(β-aminoethyl ether)-N,N,N′,N′-tetraacetic acid (EGTA) 5; MgATP 5; HEPES 10; pH 7.2 with 1 M KOH. The voltage protocol includes the following steps: step from −80 mV to −50 mV for 200 ms, +20 mV for 4.8 s, step to −50 mV for 5 s then step to the holding potential of −80 mV. Compounds of the invention are dissolved in DMSO and diluted in Extracellular Buffer to achieve final test concentrations (0.1, 1 and 10 μM) in 0.1% DMSO. The voltage protocol is run and recorded continuously during the experiment. The vehicle, corresponding to 0.1% DMSO in Extracellular Buffer, is then applied for 3 min followed by the test substance in triplicate. The standard combined exposure time is 5 min. The average of tail current amplitude values recorded from 4 sequential voltage pulses is used to calculate for each cell the effect of the test substance by calculating the residual current (% control) compared with vehicle pre-treatment. Data are reported as % inhibition for each concentration tested and IC50 values are estimated using DataXpress or QPatch software. At least two cells are tested, more if results diverge.

Sequence of human dopamine transporter (DAT) (Q01959 whole entry): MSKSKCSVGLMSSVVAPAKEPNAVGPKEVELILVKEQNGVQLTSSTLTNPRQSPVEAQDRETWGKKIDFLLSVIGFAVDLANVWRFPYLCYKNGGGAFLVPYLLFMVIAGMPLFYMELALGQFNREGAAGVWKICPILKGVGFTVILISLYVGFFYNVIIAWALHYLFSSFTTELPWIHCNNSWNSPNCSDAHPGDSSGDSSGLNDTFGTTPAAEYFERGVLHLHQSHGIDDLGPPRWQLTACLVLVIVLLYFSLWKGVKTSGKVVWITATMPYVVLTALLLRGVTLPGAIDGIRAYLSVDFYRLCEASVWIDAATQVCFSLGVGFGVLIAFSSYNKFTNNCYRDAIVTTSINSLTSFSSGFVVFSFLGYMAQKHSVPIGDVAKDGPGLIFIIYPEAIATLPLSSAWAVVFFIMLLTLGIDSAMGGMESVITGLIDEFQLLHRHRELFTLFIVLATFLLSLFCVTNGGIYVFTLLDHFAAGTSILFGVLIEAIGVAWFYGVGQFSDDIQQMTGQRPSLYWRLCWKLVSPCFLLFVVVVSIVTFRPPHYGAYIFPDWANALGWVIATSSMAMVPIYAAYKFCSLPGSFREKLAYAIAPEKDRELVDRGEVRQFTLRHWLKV
Sequence of human serotonin transporter (SERT) (P31645 whole entry): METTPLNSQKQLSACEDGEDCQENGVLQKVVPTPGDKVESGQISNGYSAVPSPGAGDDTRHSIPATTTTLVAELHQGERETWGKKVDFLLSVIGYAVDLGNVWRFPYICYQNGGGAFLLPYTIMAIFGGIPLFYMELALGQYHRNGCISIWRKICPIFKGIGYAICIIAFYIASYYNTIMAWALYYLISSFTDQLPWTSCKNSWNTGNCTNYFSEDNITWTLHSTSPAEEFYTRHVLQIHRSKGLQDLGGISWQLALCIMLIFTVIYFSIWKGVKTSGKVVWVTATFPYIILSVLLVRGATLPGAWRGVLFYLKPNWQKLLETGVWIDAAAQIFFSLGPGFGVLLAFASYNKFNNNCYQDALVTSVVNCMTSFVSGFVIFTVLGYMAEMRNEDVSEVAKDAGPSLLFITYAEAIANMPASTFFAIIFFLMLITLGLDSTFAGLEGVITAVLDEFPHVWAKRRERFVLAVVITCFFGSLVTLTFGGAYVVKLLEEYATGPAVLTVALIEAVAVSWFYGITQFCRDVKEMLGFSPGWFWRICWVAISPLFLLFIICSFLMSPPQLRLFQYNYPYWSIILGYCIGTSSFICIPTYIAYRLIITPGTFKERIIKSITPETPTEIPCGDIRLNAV
Sequence of human norepinephrine transporter (NET) (P23975 whole entry): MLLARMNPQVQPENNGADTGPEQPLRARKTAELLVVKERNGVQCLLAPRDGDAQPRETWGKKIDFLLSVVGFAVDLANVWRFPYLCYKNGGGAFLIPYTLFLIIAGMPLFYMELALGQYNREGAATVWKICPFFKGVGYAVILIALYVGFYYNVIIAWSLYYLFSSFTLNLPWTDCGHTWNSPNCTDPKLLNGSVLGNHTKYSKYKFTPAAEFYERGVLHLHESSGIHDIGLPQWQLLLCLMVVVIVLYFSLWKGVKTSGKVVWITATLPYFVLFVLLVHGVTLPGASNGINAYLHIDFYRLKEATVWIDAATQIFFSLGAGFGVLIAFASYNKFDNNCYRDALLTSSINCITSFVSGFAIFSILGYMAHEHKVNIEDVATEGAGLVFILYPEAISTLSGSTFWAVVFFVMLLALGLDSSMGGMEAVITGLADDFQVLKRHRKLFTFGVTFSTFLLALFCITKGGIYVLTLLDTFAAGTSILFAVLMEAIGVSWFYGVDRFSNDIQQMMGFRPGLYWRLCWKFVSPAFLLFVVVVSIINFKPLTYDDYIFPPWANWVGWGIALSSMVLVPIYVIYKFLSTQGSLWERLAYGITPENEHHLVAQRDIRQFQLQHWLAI
Sequence of human ERG potassium channel (hERG) (Q12809 whole entry): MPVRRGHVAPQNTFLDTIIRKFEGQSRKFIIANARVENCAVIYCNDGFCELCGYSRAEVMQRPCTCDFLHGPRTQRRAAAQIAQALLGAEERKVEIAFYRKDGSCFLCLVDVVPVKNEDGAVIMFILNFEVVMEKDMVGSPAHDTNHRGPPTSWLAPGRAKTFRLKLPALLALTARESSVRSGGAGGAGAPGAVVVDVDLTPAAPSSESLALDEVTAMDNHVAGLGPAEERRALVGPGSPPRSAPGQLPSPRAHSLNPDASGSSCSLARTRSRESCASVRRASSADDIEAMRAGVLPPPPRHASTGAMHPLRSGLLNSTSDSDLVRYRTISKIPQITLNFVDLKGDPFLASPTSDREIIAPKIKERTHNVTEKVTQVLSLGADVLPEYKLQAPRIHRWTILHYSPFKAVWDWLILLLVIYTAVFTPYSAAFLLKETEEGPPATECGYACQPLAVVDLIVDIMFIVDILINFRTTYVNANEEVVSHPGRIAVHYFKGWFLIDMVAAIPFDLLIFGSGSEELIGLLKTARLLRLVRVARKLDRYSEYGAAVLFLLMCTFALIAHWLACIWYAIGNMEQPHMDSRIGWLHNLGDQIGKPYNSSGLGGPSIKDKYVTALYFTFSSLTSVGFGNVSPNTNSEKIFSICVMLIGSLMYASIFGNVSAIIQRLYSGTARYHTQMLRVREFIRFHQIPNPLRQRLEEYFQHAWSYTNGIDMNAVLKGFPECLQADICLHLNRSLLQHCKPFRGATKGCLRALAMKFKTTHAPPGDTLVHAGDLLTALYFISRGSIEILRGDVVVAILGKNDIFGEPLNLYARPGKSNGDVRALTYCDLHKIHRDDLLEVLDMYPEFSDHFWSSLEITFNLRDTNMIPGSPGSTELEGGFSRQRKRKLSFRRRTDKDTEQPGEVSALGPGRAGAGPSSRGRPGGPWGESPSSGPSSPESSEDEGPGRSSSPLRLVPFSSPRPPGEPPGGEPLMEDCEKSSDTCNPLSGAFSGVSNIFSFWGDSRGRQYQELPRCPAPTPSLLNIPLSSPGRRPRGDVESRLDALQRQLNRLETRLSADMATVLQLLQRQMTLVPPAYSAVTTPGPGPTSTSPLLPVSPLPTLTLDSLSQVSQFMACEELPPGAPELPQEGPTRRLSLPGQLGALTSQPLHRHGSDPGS

NCC(=O)NCC1(O)CCN(c2nc(Oc3cccc(F)c3)cc(C(F)(F)F)n2)CC1 [Example 29, 2-amino-N-({1-[4-(3-fluorophenoxy)-6-(trifluoromethyl)pyrimidin-2-yl]-4-hydroxypiperidin-4-yl}methyl)acetamide]
pIC50 DAT [1]: 8.22
pIC50 NET [2]: 5.77
IC50 [3]: 19.1 µM
pIC50 hERG [4]: 5.4

NCC1(O)CCN(c2cc(F)c(F)c(Oc3cccc(F)c3)c2)CC1 [Example 19, 4-(aminomethyl)-1-[3,4-difluoro-5-(3-fluorophenoxy)phenyl]piperidin-4-ol]
pIC50 DAT [1]: 8.02
pIC50 NET [2]: 6.10
IC50 [3]: 0.363 µM
pIC50 hERG [4]: 6.1

CNCC1(O)CCN(c2nc(Oc3cccc(F)c3)cc(C(F)(F)F)n2)CC1 [Example 5, 1-[4-(3-fluorophenoxy)-6-(trifluoromethyl)pyrimidin-2-yl]-4-[(methylamino)methyl]piperidin-4-ol]
pIC50 DAT [1]: 8.33
pIC50 NET [2]: 6.61
IC50 [3]: 23.4 µM
pIC50 hERG [4]: 5.7

Cl.OC1(CN2CCCNCC2)CCN(c2nc(Oc3cccc(F)c3)cc(C(F)(F)F)n2)CC1 [Example 7, 4-(1,4-diazepan-1-ylmethyl)-1-[4-(3-fluorophenoxy)-6-(trifluoromethyl)pyrimidin-2-yl]piperidin-4-ol hydrochloride]
pIC50 DAT [1]: 8.06
pIC50 NET [2]: 6.53
IC50 [3]: 2.95 µM
pIC50 hERG [4]: 5.8

O=C(NCC1(O)CCN(c2nc(Oc3cccc(F)c3)cc(C(F)(F)F)n2)CC1)C1CNC1 [Example 25, N-({1-[4-(3-fluorophenoxy)-6-(trifluoromethyl)pyrimidin-2-yl]-4-hydroxypiperidin-4-yl}methyl)azetidine-3-carboxamide]
pIC50 DAT [1]: 8.30
pIC50 NET [2]: 5.70
IC50 [3]: 35.5 µM
IC50 [4]: > 10 µM

NCC1(O)CCN(c2nc(Oc3cccc(F)c3)cc(C(F)(F)F)n2)C1 (centres unmarked) [Example 33, 3-(aminomethyl)-1-[4-(3-fluorophenoxy)-6-(trifluoromethyl)pyrimidin-2-yl]pyrrolidin-3-ol]
pIC50 DAT [1]: 8.86
pIC50 NET [2]: 6.52
IC50 [3]: 19.1 µM
pIC50 hERG [4]: 5.8

NCC1(O)CCN(c2cc(Oc3cccc(F)c3)cc(F)c2F)CC1 [Example 18, 4-(aminomethyl)-1-[2,3-difluoro-5-(3-fluorophenoxy)phenyl]piperidin-4-ol]
pIC50 DAT [1]: 9.05
pIC50 NET [2]: 7.51
IC50 [3]: 6.17 µM
pIC50 hERG [4]: 6.0

OC1(CN2CCCC2)CCN(c2nc(Oc3cccc(F)c3)cc(C(F)(F)F)n2)CC1 [Example 2, 1-[4-(3-fluorophenoxy)-6-(trifluoromethyl)pyrimidin-2-yl]-4-(pyrrolidin-1-ylmethyl)piperidin-4-ol]
pIC50 DAT [1]: 8.80
pIC50 NET [2]: 7.57
IC50 [3]: 17 µM
pIC50 hERG [4]: 6.7

NCC1(O)CCN(c2nc(Oc3cccc(F)c3)cc(C(F)(F)F)n2)CC1 [Example 11, 4-(aminomethyl)-1-[4-(3-fluorophenoxy)-6-(trifluoromethyl)pyrimidin-2-yl]piperidin-4-ol]
pIC50 DAT [1]: 8.72
pIC50 NET [2]: 6.46
IC50 [3]: 7.59 µM
pIC50 hERG [4]: 5.8

O=C(NCC1(O)CCN(c2nc(Oc3cccc(F)c3)cc(C(F)(F)F)n2)CC1)c1cn[nH]c1 [Example 27, N-({1-[4-(3-fluorophenoxy)-6-(trifluoromethyl)pyrimidin-2-yl]-4-hydroxypiperidin-4-yl}methyl)-1H-pyrazole-4-carboxamide]
pIC50 DAT [1]: 7.72
pIC50 NET [2]: 5.65
IC50 [3]: 34.7 µM
pIC50 hERG [4]: 5.3

O=C(NCC1(O)CCN(c2nc(Oc3cccc(F)c3)cc(C(F)(F)F)n2)CC1)c1ccccc1 [Example 26, N-({1-[4-(3-fluorophenoxy)-6-(trifluoromethyl)pyrimidin-2-yl]-4-hydroxypiperidin-4-yl}methyl)benzamide]
pIC50 DAT [1]: 7.65
IC50 [2]: > 100 µM
IC50 [3]: > 100 µM
pIC50 hERG [4]: 5.5

O=C(NCC1(O)CCN(c2nc(Oc3cccc(F)c3)cc(C(F)(F)F)n2)CC1)c1cnccn1 [Example 28, N-({1-[4-(3-fluorophenoxy)-6-(trifluoromethyl)pyrimidin-2-yl]-4-hydroxypiperidin-4-yl}methyl)pyrazine-2-carboxamide]
pIC50 DAT [1]: 7.86
pIC50 NET [2]: 5.96
IC50 [3]: > 100 µM
pIC50 hERG [4]: 5.5

CC(C)C(=O)NCC1(O)CCN(c2nc(Oc3cccc(F)c3)cc(C(F)(F)F)n2)CC1 [Example 21, N-({1-[4-(3-fluorophenoxy)-6-(trifluoromethyl)pyrimidin-2-yl]-4-hydroxypiperidin-4-yl}methyl)-2-methylpropanamide]
pIC50 DAT [1]: 7.84
pIC50 NET [2]: 4.75
IC50 [3]: > 100 µM
IC50 [4]: > 10 µM

CC1CCC(C)N1CC1(O)CCN(c2nc(Oc3cccc(F)c3)cc(C(F)(F)F)n2)CC1 (centres unmarked) [Example 8, 4-[(2,5-dimethylpyrrolidin-1-yl)methyl]-1-[4-(3-fluorophenoxy)-6-(trifluoromethyl)pyrimidin-2-yl]piperidin-4-ol]
pIC50 DAT [1]: 7.66
pIC50 NET [2]: 6.29
IC50 [3]: 6.03 µM
pIC50 hERG [4]: 6.8
